According to PMC11653257, “Organometallic Half-Sandwich Complexes of 8-Hydroxyquinoline-Derived Mannich Bases with Enhanced Solubility: Targeting Multidrug Resistant Cancer” (Inorganic Chemistry, 2024):
≈ marks a conversion by molar mass, not a printed value. Read-outs that look alike come from different tables or passages of the source.

How the values were obtained:
[1] = test system: Escherichia coli (ATCC 25922); experiment: Antibacterial MIC, E. coli; format: cell-based; settings: Mueller Hinton Broth, 37 °C, 18 h
Procedure: (§1) Escherichia coli (ATCC 25922) was used as Gram-negative strain and Staphylococcus aureus (ATCC 25923, methicillin-resistant (MRSA) ATCC 43300) strains were applied as Gram-positive bacterial cultures in the experiments. MIC values of the compounds were determined in 96-well plates based on the Clinical and Laboratory Standard Institute guidelines (CLSI guidelines).[76] The stock solutions of the compounds (same as those used for cytotoxicity experiments) were diluted in 100 μL of Mueller Hinton Broth. Then, 10^–4 dilution of an overnight bacterial culture in 100 μL of medium was added to each well, with the exception of the medium control wells.

[2] = test system: Staphylococcus aureus (ATCC 25923); experiment: Antibacterial MIC, S. aureus; format: cell-based; settings: Mueller Hinton Broth, 37 °C, 18 h
Procedure: as §1

[3] = molecular target: human serum albumin (HSA), Trp214 / site I (Homo sapiens, UniProt P02768); experiment: HSA Trp214 fluorescence quenching
human serum albumin (HSA), Trp214 / site I, sequence (P02768 25-609): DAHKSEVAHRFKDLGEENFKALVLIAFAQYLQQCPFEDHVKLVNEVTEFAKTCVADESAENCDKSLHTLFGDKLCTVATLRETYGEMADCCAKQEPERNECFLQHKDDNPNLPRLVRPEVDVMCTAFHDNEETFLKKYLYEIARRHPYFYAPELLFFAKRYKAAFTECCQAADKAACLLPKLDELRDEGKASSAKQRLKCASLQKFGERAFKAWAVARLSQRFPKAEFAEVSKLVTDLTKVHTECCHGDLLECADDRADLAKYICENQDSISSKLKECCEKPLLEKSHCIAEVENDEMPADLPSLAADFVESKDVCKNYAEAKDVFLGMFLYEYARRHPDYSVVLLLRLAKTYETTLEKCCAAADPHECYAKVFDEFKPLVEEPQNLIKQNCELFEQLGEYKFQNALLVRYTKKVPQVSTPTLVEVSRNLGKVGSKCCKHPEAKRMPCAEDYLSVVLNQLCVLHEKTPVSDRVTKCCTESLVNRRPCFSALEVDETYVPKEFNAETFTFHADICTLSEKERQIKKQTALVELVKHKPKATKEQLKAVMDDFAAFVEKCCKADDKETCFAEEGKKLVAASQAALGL
Procedure: (§4) Next, spectrofluorometric measurements were also performed to gain insight into the binding interactions that may occur in the hydrophobic binding sites of HSA. Tryptophan (Trp214) quenching experiments were conducted for the complexes (1–4) (for complex (3) see Figure S31) and their ligands). […] To monitor the binding at site II, site marker displacement experiments were performed using dansylglycine (DG).
(§5) Fluorescence measurements were carried out on a Fluoromax (Horiba Jobin Yvon, Longjumeau, France) spectrofluorometer using a 1 cm × 1 cm quartz cuvette. […] Excitation wavelengths were 295 nm for Trp-214 quenching and 340 nm for the DG displacement studies. The calculated conditional stability constants for HSA–complex species were obtained using the computer program HypSpec.[64] Calculations always were based on data obtained from at least two independent measurements.

[4] = test system: MES-SA/Dx5; experiment: Cytotoxicity in double coculture, MES-SA/Dx5 eGFP; settings: for SR = IC50 (MES-SA)/IC50 (MES-SA/Dx5): double coculture; for IC50: read-out: IC50 MES-SA/Dx5
Procedure: Therefore, the novel half-sandwich complexes (1–4) and their corresponding ligands were tested against a coculture of MES-SA and MES-SA/Dx5 cells expressing the fluorescent proteins mCherry or eGFP, respectively.[62]
The tested compounds were dissolved in 50% (v/v) DMSO/PBS’ buffer to prepare 5–10 mM stock solutions, which were diluted in complete culture medium. Constitutive expression of the fluorescent proteins allowed multiplexing in cytotoxicity experiments.[62] […] Serial dilutions of the compounds were added 24 h after seeding. To address the effect of P-gp function, TQ was added at a nontoxic concentration (0.4 μM) 15 min before the test compounds. […] IC50 values and standard deviation were calculated from average pIC50 values from at least 3 independent measurements.

[5] = molecular target: human serum albumin (HSA), site II (Homo sapiens, UniProt P02768); experiment: HSA dansylglycine (DG) site marker displacement
human serum albumin (HSA), site II, sequence (P02768 25-609): as above
Procedure: as §4, §5

[6] = test system: MES-SA/B1; experiment: Cytotoxicity in triple coculture, MES-SA/B1 mOrange; format: cell-based, human
Procedure: (§2) Cell lines were purchased from the American Type Culture Collection (ATCC). MES-SA/B1 is a human MDR1-transfected derivative of MES-SA, and MES-SA mCherry, MES-SA/B1 mOrange, and MES-SA/Dx5 eGFP were engineered to stably express the respective fluorescent proteins previously.[62] Cells were kept in culture medium (DMEM) supplemented with 10% fetal bovine serum, 2 mM L-glutamine, 100 units/mL penicillin, and 100 μg/mL streptomycin (Thermo Fisher). One week before use, MES-SA/Dx5 eGFP cells were treated with 0.5 μM doxorubicin to ensure ABCB1/P-gp expression.
(§3) The tested compounds were dissolved in 50% (v/v) DMSO/PBS’ buffer to prepare 5–10 mM stock solutions, which were diluted in complete culture medium. Constitutive expression of the fluorescent proteins allowed multiplexing in cytotoxicity experiments.[62] Cells were mixed before seeding in 384-well plates: in double cocultures, MES-SA mCherry and MES-SA/Dx5 eGFP cells were seeded at 1250–1250 cells/well (in total 2500 cells/well); while in triple cocultures, MES-SA mCherry, MES-SA/Dx5 eGFP and MES-SA/B1 mOrange cells were seeded at 800–800–800 cells/well (in total 2400 cells/well). Serial dilutions of the compounds were added 24 h after seeding. To address the effect of P-gp function, TQ was added at a nontoxic concentration (0.4 μM) 15 min before the test compounds. The intensity of the fluorescent proteins, which is proportional to cell mass, was measured after 144 h of incubation at the respective fluorescent channels (excitation/emission: eGFP: 485 nm/510 nm; mOrange: 545 nm/567 nm; mCherry: 585 nm/610 nm). pIC50 values were calculated by a custom program written by Judit Sessler in C#.[62] IC50 values and standard deviation were calculated from average pIC50 values from at least 3 independent measurements.

[7] = test system: methicillin-resistant S. aureus (MRSA) ATCC 43300; experiment: Antibacterial MIC, MRSA; format: cell-based, Staphylococcus aureus; settings: Mueller Hinton Broth, 37 °C, 18 h
Procedure: as §1

[8] = test system: MES-SA/Dx5; experiment: Cytotoxicity in triple coculture, MES-SA/Dx5 eGFP; format: cell-based, human
Procedure: as §2, §3

[9] = test system: MES-SA; experiment: Cytotoxicity in double coculture, MES-SA mCherry; settings: read-out: IC50 MES-SA, 144 h
[10] = n-octanol/water distribution coefficient (shake-flask); format: physicochemical; settings: pH 7.4
Procedure: The exchange of the coligand (H2O/Cl^–) changes the overall charge of the complex, thus affecting lipophilicity. […] The traditional shake-flask method was used to obtain distribution coefficients of the ligands as well as of the complexes in n-octanol/buffered aqueous solution (20 mM phosphate, pH = 7.4) at different chloride ion concentrations (4, 24, and 100 mM) using UV–vis spectrophotometry (Agilent Cary 8454 diode array spectrophotometer, Santa Clara, CA, USA) for the analysis. The compounds were dissolved in buffered aqueous solutions previously saturated with n-octanol. Then the aqueous and n-octanol phases were gently mixed in different volume ratios (using 1:60 for the ligands, 1:1 for the RhCp* and 1:2 for the RuCym complexes ratios of n-octanol to buffered aqueous solution volume) for 4 h, followed by phase separation. Then the UV–vis spectrum of the aqueous or n-octanol phase was recorded and compared to the reference spectrum. Stock solutions were made in the aqueous phase, and distribution coefficients (DpH) were calculated by the following equation: [drawing 3]

[11] = test system: MES-SA; settings: monoculture, PrestoBlue; ref SI3; cited from earlier work
[12] = test system: Colo320; experiment: Cytotoxicity, Colo320; format: cell-based, human; settings: this work
Source text: Supplementary Information
(11 pictures or pasted objects on this page, not shown here)

[13] = test system: A431-B1; set-up: method as in earlier work; settings: monoculture, ref SI3, cited from earlier work
[14] = pKa of the ligands by 1H NMR titration; format: physicochemical; settings: 0.20 M KNO3 with 10% (v/v) D2O, I = 0.20 M KNO3, 25.0 °C, read-out: pKa (OH)
Procedure: Physico-chemical properties such as aqueous solubility, lipophilicity, and the actual protonation state at a given pH are known to influence the pharmacokinetic behavior of a drug.
Bruker Avance III HD Ascend 500 Plus instrument (Billerica, MA, USA) was used for NMR studies. ^1H NMR spectroscopic measurements were carried out with a WATERGATE water suppression pulse scheme in the presence of 10% (v/v) D2O in most cases. DSS internal standard was added to samples to obtain reference peaks. ^1H NMR titrations were carried out in the presence of 0.20 M KNO3. The computer program HypSpec[64] was used to obtain equilibrium constants.

Q: For [RhCp*(HQCl-Pip)Cl]Cl [(3)], which MIC [1] is on record?
A: Its MIC is 50 µM.

Q: And the MIC [2]?
A: Its MIC is 50 µM.

Q: What about the “logK’(quenching)” value ([3]; 1 μM HSA, λEX = 295 nm (Trp-214), pH 7.4 (PBS’), […], 24 h) of the same compound?
A: The value was 5.1 ± 0.1.

Q: And the “SR = IC50 (MES-SA)/IC50 (MES-SA/Dx5)” value ([4]; + 0.4 μM tariquidar (TQ))?
A: Its value is 1.3.

Q: What about the “SR = IC50 (MES-SA)/IC50 (MES-SA/Dx5)” value ([4]; without TQ) of the same compound?
A: Its value is 9.1.

Q: And the IC50 ([4]; double coculture with MES-SA, 144 h, without TQ)?
A: The IC50 was 220 nM.

Q: What about the “logK’(DG)” value ([5]; cHSA = cDG = 1 μM, λEX = 335 nm (DG), pH 7.4 (PBS’), […], 24 h) of the same compound?
A: Its value is 5.0 ± 0.1.

Q: What about the “SR B1 = IC50 (MES-SA)/IC50 (MES-SA/B1)” value [6] of the same compound?
A: Its value is 2.9.

Q: What about the IC50 ([6]; 144 h) of the same compound?
A: Its IC50 is 740 nM.

Q: What about the MIC [7] of the same compound?
A: Its MIC is 25 µM.

Q: What about the “SR Dx5 = IC50 (MES-SA)/IC50 (MES-SA/Dx5)” value [8] of the same compound?
A: The value was 11.1.

Q: What about the IC50 ([8]; 144 h) of the same compound?
A: Its IC50 is 190 nM.

Q: What about the IC50 ([9]; double coculture with MES-SA/Dx5, without TQ) of the same compound?
A: The IC50 was 2040 nM.

Q: And the logD7.4 ([10]; c(Cl–) = 4 mM)?
A: Its logD7.4 is “+0.34 ± 0.01”.

Q: What about the logD7.4 ([10]; c(Cl–) = 24 mM) of the same compound?
A: Its logD7.4 is “+0.58 ± 0.01”.

Q: And the logD7.4 ([10]; c(Cl–) = 100 mM)?
A: Its logD7.4 is “+0.60 ± 0.01”.

Q: What does the source list for `Oc1c(CN2CCCCC2)cc(Cl)c2cccnc12` [HQCl-pip, 5-chloro-7-(piperidin-1-ylmethyl)quinolin-8-ol]?
A: IC50 [11]: 2490 ± 390 nM; MIC ([1]; Escherichia coli, ATCC25922): 50 µM (≈ 13.8 µg/mL); MIC ([2]; Staphylococcus aureus, ATCC25923): 50 µM (≈ 13.8 µg/mL); SR (Colo205 / Colo320) [12]: 2.4; Kd [3]: 7940 nM; IC50 ([4]; Homo sapiens, MES-SA/Dx5, 144 h): 90 nM; Kd [5]: 3980 nM; IC50 ([6]; Homo sapiens, MES-SA/B1, 144 h): 380 nM; MIC ([7]; Staphylococcus aureus): 25 µM (≈ 6.92 µg/mL); IC50 ([13]; 72 h, PrestoBlue): 1690 ± 270 nM; SR (A431 / A431-B1) [13]: 3.96; IC50 ([9]; Homo sapiens, MES-SA): 1090 nM; logD at 4 h ([10]; n-octanol/buffered aqueous solution, n-octanol/H2O, read-out: log D7.4): 2.54; pKa [14]: 7.43 ± 0.02
